In patent US20220331333A1, “RHOA PATHWAY INHIBITOR IN THE TREATMENT OF NEURODEVELOPMENTAL DISORDER OR NEUROPSYCHIATRIC DISORDER” (UNIVERSITE DE STRASBOURG, priority 2021, published 2022):

Experiments:
RHOA [1] = assay: Western blot of RHOA in hippocampal lysates, 16p11.2 Del/+ line; type: in vivo, mouse; settings: fasudil for 6 weeks, 18-week-old mice
Procedure: (§1) At 12 weeks of age, three independent cohorts of mice for each line, with wild-type (wt) and mutant littermates, were subjected to a battery of behavioral tests (see below) for 2 weeks. Then, 14 weeks old mice were randomly divided into 2 groups: one treated with fasudil administrated orally ad libitum in drinking water to reach a dose of 100 mg/kg/day and a second with no treatment. The dose was estimated to 152.7 mg in feeding bottle (250 ml) changed twice a week considering the previous study in which the drinking volume was evaluated to about 4.6 ml/day/mouse. […]
(§2) Fresh hippocampal tissues were isolated by rapid decapitation/dissection of naive mice and snap frozen. […] Protein concentration was determined by Pierce™ BCA Protein Assay Kit (23225, Thermo Fisher Scientific, Strasbourg). […] Total levels of RHOA protein and Myosin Light Chain phosphorylation by Myosin Light Chain Kinase via RHOA pathway were analyzed using Western Blot. […] Signals were quantified using ImageJ and analyzed using Microsoft Excel and GraphPad Prism. […] The ratio of protein level or phosphorylation level against control β-actin protein level (detected with a mouse monoclonal Anti-βActin-Peroxidase antibody (A3854 Sigma)) was normalized to untreated wt sample mean. […]

[2] = system: phosphorylated form of MLC (P-MLC); assay: Western blot of phosphorylated MLC in hippocampal lysates, Kctd13+/− line; type: in vivo, mouse; settings: Kctd13+/− mutant mice, fasudil for 6 weeks, 18-week-old mice
Procedure: as §1, §2

Kctd13^+/− mouse model [3] = assay: Open field test after chronic fasudil treatment, Kctd13+/− line; type: in vivo; settings: Kctd13+/− and wt littermates, 100 mg/kg/day orally in drinking water, 4 weeks
Procedure: (§3) In this study, the inventors developed a protocol for a pre-clinical treatment (FIG. 1) with the drug fasudil hydrochloride or HA1077 ([…], LC laboratories Boston, Mass., USA). […] Animal bedding was changed once a week. At 11 weeks, animals were transferred from the animal facility to the phenotyping area. The temperature was kept at 21±2° C., and the light cycle was controlled as 12 h light and 12 h dark. At 12 weeks of age, three independent cohorts of mice for each line, with wild-type (wt) and mutant littermates, were subjected to a battery of behavioral tests (see below) for 2 weeks. […] The dose was estimated to 152.7 mg in feeding bottle (250 ml) changed twice a week considering the previous study in which the drinking volume was evaluated to about 4.6 ml/day/mouse. […] During each session the exploration activity was analyzed by measuring the total distance travelled, evaluated the adaptation of the mice to the environment over time, by splitting the data in intervals of 10 minutes and assessed the vertical activity through the number of rears. […] The exploration time of both objects A was recorded. […] The exploration time of the two objects (familiar object and novel object) was recorded. […] Data from behavioral characterization of Kctd13^+/- and 16p11.2 Del/+ mouse models were analyzed through the Student t-test (see supplementary table 1 and table 2 as a summary). […]

Kctd13^+/− mouse model [4] = assay: Novel object recognition (NOR) test after chronic fasudil treatment, Kctd13+/− line; type: in vivo; settings: Kctd13+/− mice, 100 mg/kg/day orally in drinking water, tested at 19 weeks, 3 h retention delay
Procedure: as §3

[5] = system: phosphorylated form of MLC (P-MLC); assay: Western blot of phosphorylated MLC in hippocampal lysates, 16p11.2 Del/+ line; type: in vivo, mouse; settings: fasudil for 6 weeks, 18-week-old mice
Procedure: as §1, §2

[6] = system: 16p11.2 Del/+ mouse model; assay: Novel object recognition (NOR) test after chronic fasudil treatment, 16p11.2 Del/+ line; type: in vivo; settings: 16p11.2 Del/+ mice, 100 mg/kg/day orally in drinking water, tested at 19 weeks, 3 h retention delay
Procedure: as §3

RHOA [7] = assay: Western blot of RHOA in hippocampal lysates, Kctd13+/− line; type: in vivo, mouse; settings: fasudil for 6 weeks, 18-week-old mice
Procedure: as §1, §2

[8] = system: 16p11.2 Del/+ mouse model; assay: Open field test after chronic fasudil treatment, 16p11.2 Del/+ line; type: in vivo; settings: 16p11.2 Del/+ and wt littermates, 100 mg/kg/day orally in drinking water, 4 weeks
Procedure: as §3

O=S(=O)(c1cccc2cnccc12)N1CCCNCC1 [fasudil, hexahydro-1-(5-isoquinolinesulfonyl)-1H-1,4-diazepine]
RHOA protein levels in hippocampus (RHOA [1]): did not cause changes in RHOA protein levels
MLC phosphorylation levels in hippocampus [2]: reduced MLC phosphorylation levels
vertical activity (number of rears) in open field (Kctd13^+/− mouse model [3]): did not have effect on any genotype for the vertical activity
locomotor exploration activity (total distance travelled) in open field (Kctd13^+/− mouse model [3]; treated vs non-treated): did not change the locomotor exploration activity
novel object recognition (recognition index vs 50% chance level) (Kctd13^+/− mouse model [4]): significantly improved the NOR defect
MLC phosphorylation levels in hippocampus ([5]; 16p11.2 Del/+ mutant mice): restored a normal MLC phosphorylation
MLC phosphorylation levels in hippocampus ([5]; wt littermates of the 16p11.2 Del/+ line): induced increased MLC phosphorylation in wt mice
novel object recognition (recognition index vs 50% chance level) [6]: significantly improved the NOR defect
RHOA protein levels in hippocampus (RHOA [7]): did not cause changes in RHOA protein levels
vertical activity (number of rears) in open field [8]: did not have effect on any genotype for the vertical activity
locomotor exploration activity (total distance travelled) in open field ([8]; treated vs non-treated): did not change the locomotor exploration activity
